# From patent publication US11773108B2, “Indene derivatives useful in treating pain and inflammation” (TARO PHARMACEUTICALS INC., priority 2018, dated 2023)
# Assay: Metabolism by human liver microsomes
# Assay type: in vitro ADME
# Details: human liver microsomes 1 mg/mL protein, 10 μM, in the presence of NADPH, LC-MS/MS
# Description: Representative compounds of the invention (i.e., test compounds) and the positive control, 7-ethoxycoumarin, were prepared as stock solutions at 10 mM in DMSO and eventually diluted to 10 μM in the test plate, with an appropriate amount of acetonitrile and tris HCl buffer. Final DMSO and acetonitrile concentrations were […] and 0.5% respectively. NADPH was prepared in tris HCl buffer to a stock of 10 mM. A frozen aliquot of liver microsomes was retrieved from the freezer (−80° C.) and thawed by placing the tube on wet ice. After thawing, the tubes were gently mixed and the required amount, transferred to tris HCl buffer. Test compounds or positive control were pre-incubated, separately, for 10 minutes, with liver microsomes (1 mg/mL protein), at 37° C., in 100 mM Tris HCl at pH 7.5. After preincubation the reaction was started by adding 1 mM NADPH (pre-equilibrated to 30° C.) and the reaction allowed to proceed for 60 minutes. At 60 minutes, a 50 μL aliquot was removed and quenched with 200 uL of acetonitrile containing a mixture of internal standards (Tolbutamide (500 ng/mL) and Telmistartan (500 ng/mL)) and vortexed then centrifuged at 4000 rpm for 10 minutes (Eppendorf 5810R). The supernatant was transferred to a 96 well plate for LC-MS/MS analysis.
# An LC-MS/MS method was devised for the test compounds and the control, using a AB Sciex API 4000 system coupled to a NEXAR™ UHPLC (Shimadzu) system. Analytes were separated on a Phenomenex Kinetex C18 column (50×2.1 mm, 5 μm) using a gradient that was appropriate for each compound, at a flow rate of 1 ml/minute, utilizing a mobile phase of 0.1% formic acid in MILLI-Q™ water (A) and 0.1% formic acid in acetonitrile (B). The MS instrument was operated in positive mode (ESI+)/negative (ESI−). The multiple reaction monitoring (MRM) transition for test and control compounds was used for the LC-MS/MS analysis. MRM transitions for control compound 7-ethoxycoumarinm were Quadropole 1: 191.0, Quadropole 3:163.0, dwell time: 75 msec, using curtain gas settings of 5 V, ion-spray voltage of 5500 V, temperature of 50° C. and gas settings for nebulizer and auxiliary set to 30 and 40 psi, respectively. The interface heater was kept on. Entrance potential and collision cell exit potential were varied to tune for a specific compound.
# Using a suitable LC-MS/MS method, the percentage of drug remaining at 60 minutes ([…]) was assessed by comparing the average analyte to internal standard area ratio at 60 minutes to the average analyte to internal standard area ratio at 0 time control, as a percentage, from a 5 to 10 μL sample injection.
# According to the above assay, the test compounds listed in Table 7 below were active in the Human liver microsome assay at 10 μM and the % of drug remaining after 60 minutes (PDR60), in the presence of NADPH, was assessed by LC-MS/MS. Average PDR60 for the standard compound, 7-ethoxycoumarin was <=65% in the presence of NADPH. Scoring for the test compounds, in the presence of NADPH, was as follows: “A” represents a PDR60 of 81 to 100%, “B” represents a PDR60 of 61 to 80%, “C” represents a PDR60 of 31 to 60% and “D” represents a PDR60 of 0 to 30%.
row,Scoring: % of drug remaining after 60 minutes (PDR60),Compound
1,D (“D” represents a PDR60 of 0 to 30%),"COc1ccc(-n2ncc3c2C[C@H](CO)[C@@](C)([C@H]2CC[C@]4(C)[C@@H](C)CC[C@H]4[C@@H]2CN)C3)cc1 [Ia-49, ((5R,6S)-5-((1S,3aS,4S,5S,7aR)-4-(aminomethyl)-1,7a-dimethyloctahydro-1H-inden-5-yl)-1-(4-methoxyphenyl)-5-methyl-4,5,6,7-tetrahydro-1H-indazol-6-yl)methanol]"
2,A (“A” represents a PDR60 of 81 to 100%),"C=C1CC[C@H]2[C@H](CN)[C@@H]([C@@]3(C)Cc4cn(-c5ccc(F)cc5)nc4C[C@@H]3CO)CC[C@]12C [Ia-13, ((5R,6S)-5-((3aS,4R,5S,7aS)-4-(aminomethyl)-7a-methyl-1-methyleneoctahydro-1H-inden-5-yl)-2-(4-fluorophenyl)-5-methyl-4,5,6,7-tetrahydro-2H-indazol-6-yl)methanol]"
3,B (“B” represents a PDR60 of 61 to 80%),"C[C@]1([C@H]2CC[C@]3(C)c4[nH]ncc4C[C@H]3[C@@H]2CN)Cc2cn[nH]c2C[C@@H]1CO [Ia-7, ((5R,6S)-5-((4aS,5R,6S,8aS)-5-(aminomethyl)-8a-methyl-1,4,4a,5,6,7,8,8a-octahydroindeno[1,2-c]pyrazol-6-yl)-5-methyl-4,5,6,7-tetrahydro-1H-indazol-6-yl)methanol]"
4,C (“C” represents a PDR60 of 31 to 60%),"C=C1CC[C@H]2[C@H](CN)[C@@H]([C@@]3(C)Cc4cn(-c5ccc(F)c(F)c5)nc4C[C@@H]3CO)CC[C@]12C [Ia-23, ((5R,6S)-5-((3aS,4R,5S,7aS)-4-(aminomethyl)-7a-methyl-1-methyleneoctahydro-1H-inden-5-yl)-2-(3,4-difluorophenyl)-5-methyl-4,5,6,7-tetrahydro-2H-indazol-6-yl)methanol]"
5,B (“B” represents a PDR60 of 61 to 80%),"C=C1CC[C@H]2[C@H](CN)[C@@H]([C@@]3(C)Cc4cn(-c5ccc(Oc6ccc(F)cc6)cc5)nc4C[C@@H]3CO)CC[C@]12C [Ia-25, ((5R,6S)-5-((3aS,4R,5S,7aS)-4-(aminomethyl)-7a-methyl-1-methyleneoctahydro-1H-inden-5-yl)-2-(4-(4-fluorophenoxy)phenyl)-5-methyl-4,5,6,7-tetrahydro-2H-indazol-6-yl)methanol]"

# More lines, now with the values behind:
row,Compound,Scoring: % of drug remaining after 60 minutes (PDR60)
1,"C=C1CC[C@H]2[C@H](CN)[C@@H]([C@@]3(C)Cc4cnn(-c5cccc(F)c5)c4C[C@@H]3CO)CC[C@]12C [Ia-40, ((5R,6S)-5-((3aS,4R,5S,7aS)-4-(aminomethyl)-7a-methyl-1-methyleneoctahydro-1H-inden-5-yl)-1-(3-fluorophenyl)-5-methyl-4,5,6,7-tetrahydro-1H-indazol-6-yl)methanol]",D (“D” represents a PDR60 of 0 to 30%)
2,"C=C1CC[C@H]2[C@H](CN)[C@@H]([C@@]3(C)Cc4cnn(-c5ccc(F)cn5)c4C[C@@H]3CO)CC[C@]12C [Ia-30, ((5R,6S)-5-((3aS,4R,5S,7aS)-4-(aminomethyl)-7a-methyl-1-methyleneoctahydro-1H-inden-5-yl)-1-(5-fluoropyridin-2-yl)-5-methyl-4,5,6,7-tetrahydro-1H-indazol-6-yl)methanol]",D (“D” represents a PDR60 of 0 to 30%)
3,"C=C1CC[C@H]2[C@H](CN)[C@@H]([C@@]3(C)Cc4cnn(-c5ccc(F)cc5F)c4C[C@@H]3CO)CC[C@]12C [Ia-34, ((5R,6S)-5-((3aS,4R,5S,7aS)-4-(aminomethyl)-7a-methyl-1-methyleneoctahydro-1H-inden-5-yl)-1-(2,4-difluorophenyl)-5-methyl-4,5,6,7-tetrahydro-1H-indazol-6-yl)methanol]",D (“D” represents a PDR60 of 0 to 30%)
4,"C=C1CC[C@H]2[C@H](CN)[C@@H]([C@@]3(C)Cc4cn(Cc5ccc(OC)cc5)nc4C[C@@H]3CO)CC[C@]12C [Ia-17, ((5R,6S)-5-((3aS,4R,5S,7aS)-4-(aminomethyl)-7a-methyl-1-methyleneoctahydro-1H-inden-5-yl)-2-(4-methoxybenzyl)-5-methyl-4,5,6,7-tetrahydro-2H-indazol-6-yl)methanol]",C (“C” represents a PDR60 of 31 to 60%)
5,"C[C@]1([C@H]2CC[C@]3(C)C(c4ccccc4)=CC[C@H]3[C@@H]2CN)Cc2cn[nH]c2C[C@@H]1CO [Ia-6, ((5R,6S)-5-((3aS,6S,7R,7aS)-7-(aminomethyl)-3a-methyl-3-phenyl-3a,4,5,6,7,7a-hexahydro-1H-inden-6-yl)-5-methyl-4,5,6,7-tetrahydro-1H-indazol-6-yl)methanol]",A (“A” represents a PDR60 of 81 to 100%)
6,"C=C1CC[C@H]2[C@H](CN)[C@@H]([C@@]3(C)Cc4cn(C5CCC(F)(F)CC5)nc4C[C@@H]3CO)CC[C@]12C [Ia-39, ((5R,6S)-5-((3aS,4R,5S,7aS)-4-(aminomethyl)-7a-methyl-1-methyleneoctahydro-1H-inden-5-yl)-2-(4,4-difluorocyclohexyl)-5-methyl-4,5,6,7-tetrahydro-2H-indazol-6-yl)methanol]",A (“A” represents a PDR60 of 81 to 100%)
7,"C=C1CC[C@H]2[C@H](CN)[C@@H]([C@@]3(C)Cc4cnn(-c5ccc(OC)cc5)c4C[C@@H]3CO)CC[C@]12C [Ia-14, ((5R,6S)-5-((3aS,4R,5S,7aS)-4-(aminomethyl)-7a-methyl-1-methyleneoctahydro-1H-inden-5-yl)-1-(4-methoxyphenyl)-5-methyl-4,5,6,7-tetrahydro-1H-indazol-6-yl)methanol]",D (“D” represents a PDR60 of 0 to 30%)
8,"C=C1CC[C@H]2[C@H](CN)[C@@H]([C@@]3(C)Cc4cn(Cc5ccc(F)cc5)nc4C[C@@H]3CO)CC[C@]12C [Ia-19, ((5R,6S)-5-((3aS,4R,5S,7aS)-4-(aminomethyl)-7a-methyl-1-methyleneoctahydro-1H-inden-5-yl)-2-(4-fluorobenzyl)-5-methyl-4,5,6,7-tetrahydro-2H-indazol-6-yl)methanol]",B (“B” represents a PDR60 of 61 to 80%)
9,"C=C1CC[C@H]2[C@H](CN)[C@@H]([C@@]3(C)Cc4cnn(-c5ccccc5F)c4C[C@@H]3CO)CC[C@]12C [Ia-32, ((5R,6S)-5-((3aS,4R,5S,7aS)-4-(aminomethyl)-7a-methyl-1-methyleneoctahydro-1H-inden-5-yl)-1-(2-fluorophenyl)-5-methyl-4,5,6,7-tetrahydro-1H-indazol-6-yl)methanol]",D (“D” represents a PDR60 of 0 to 30%)

# Same assay, conditions: standard compound; human liver microsomes, 10 μM, in the presence of NADPH, 60 minutes
row,Average PDR60,Compound
1,<= 65%,"CCOc1ccc2ccc(=O)oc2c1 [7-ethoxycoumarin, reference compound]"
